Read-outs that look alike come from different tables or passages of the source.
Key:
H3K36me3 in A549 cells = test: In-Cell Western (ICW) assay of SETD2 inhibitors (A549 assay); format: cell-based, human; conditions: A549 cells, read-out: SETD2 A549
Summary of the method: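 A549 cells seeded at 4,000/well onto compound and incubated 3 days at 37° C. Methanol-fixed cells stained overnight at 4° C with anti-H3K36me3 (1:1000), then IRDye 800CW secondary with DRAQ5 DNA counterstain. Plates read by Licor imaging at 700 and 800 channels.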

SETD2(1434-1711) = molecular target: T1, SETD2(1434-1711) (Homo sapiens, UniProt Q9BYW2); test: SETD2 (1434-1711) assay; format: biochemical; conditions: read-out: SETD2 (1434-1711)
T1 construct: SETD2 (1434-1711) Assay; catalogue N/A
T1 sequence (Q9BYW2 1434-1711): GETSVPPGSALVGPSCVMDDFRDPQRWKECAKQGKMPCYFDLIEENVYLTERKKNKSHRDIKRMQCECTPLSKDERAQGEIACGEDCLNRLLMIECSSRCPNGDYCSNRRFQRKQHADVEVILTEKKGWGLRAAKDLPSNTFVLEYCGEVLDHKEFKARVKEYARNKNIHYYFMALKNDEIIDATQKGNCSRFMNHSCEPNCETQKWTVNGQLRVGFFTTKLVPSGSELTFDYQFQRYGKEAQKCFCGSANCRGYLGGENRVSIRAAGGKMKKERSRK

| Compound | IC50 (H3K36me3 in A549 cells; Homo sapiens) | IC50 (SETD2(1434-1711)) | IC50 (H3K36me3 in A549 cells) |
| --- | --- | --- | --- |
| CC(=O)N1CCC(N2CCCCC(NC(=O)c3cc4c(F)ccc(C)c4[nH]3)C2)CC1 (stereo not shown) [compound 867] | > 2000 nM | 400 nM | – |
| Cc1ccc(F)c2cc(C(=O)NC3CCCC(N4CCn5ncnc5C4)C3)[nH]c12 (stereo not shown) [compound 868] | – | 100 nM | 200 nM |
| Cc1ccc(F)c2cc(C(=O)N[C@@H]3CCC[C@@H](N4CCn5ncnc5C4)C3)[nH]c12 [compound 869] | – | 6600 nM | > 2000 nM |
| Cc1ccc(F)c2cc(C(=O)N[C@@H]3CCCC(N4CCC5(CCNC5=O)CC4)C3)[nH]c12 (stereo partly shown) [compound 874] | > 2000 nM | 400 nM | – |
| CCOC(=O)N1CCC(N2CCC[C@@H](NC(=O)c3cc4c(F)ccc(C)c4[nH]3)C2)CC1 [compound 875] | > 2000 nM | 700 nM | – |
| CCOC(=O)N1CCC(N2CCC[C@H](NC(=O)c3cc4c(F)ccc(C)c4[nH]3)C2)CC1 [compound 876] | > 2000 nM | > 10000 nM | – |
| CC(=O)N1CCN(CC2CCCN(C(=O)c3cc4c(F)ccc(C)c4[nH]3)C2)CC1 (stereo not shown) [compound 877] | > 2000 nM | > 10000 nM | – |
| Cc1ccc(F)c2cc(C(=O)N[C@@H]3CCC[C@H](N4CCCC5(CCNC5=O)C4)C3)[nH]c12 (stereo partly shown) [compound 882] | 700 nM | 100 nM | – |
| Cc1ccc(F)c2cc(C(=O)N[C@@H]3CCC[C@H](N4CCN(C)C(=O)C4C)C3)[nH]c12 (stereo partly shown) [compound 884] | 200 nM | 100 nM | – |
| CC(=O)N1CCN(C(=O)C2CCCN(C(=O)c3cc4c(F)ccc(C)c4[nH]3)C2)CC1 (stereo not shown) [compound 886] | > 2000 nM | 8900 nM | – |
| Cc1ccc(F)c2cc(C(=O)N[C@@H]3CCCC(N4CCC5(CC4)CNC(=O)N5)C3)[nH]c12 (stereo partly shown) [compound 890] | > 2000 nM | 100 nM | – |
| Cc1ccc(F)c2cc(C(=O)N[C@@H]3CCCN(C4CCN(C(=O)CN(C)C)CC4)C3)[nH]c12 [compound 891] | > 2000 nM | 900 nM | – |
| Cc1ccc(F)c2cc(C(=O)N[C@H]3CCCN(C4CCN(C(=O)CN(C)C)CC4)C3)[nH]c12 [compound 892] | > 2000 nM | > 10000 nM | – |
| Cc1ccc(F)c2cc(C(=O)N[C@@H]3CCCC(N4CCC5(CCC(=O)N5)CC4)C3)[nH]c12 (stereo partly shown) [compound 894] | 1400 nM | 30 nM | – |
| Cc1ccc(F)c2cc(C(=O)NC3CCCC(N4CCC5(CC4)COC(=O)N5)C3)[nH]c12 (stereo not shown) [compound 895] | 1500 nM | 50 nM | – |
| Cc1ccc(F)c2cc(C(=O)N[C@@H]3CCCC(N4CCC5(CC4)CNC(=O)C5)C3)[nH]c12 (stereo partly shown) [compound 896] | 1800 nM | 100 nM | – |

| Compound | IC50 (H3K36me3 in A549 cells; Homo sapiens) | IC50 (SETD2(1434-1711)) | IC50 (H3K36me3 in A549 cells) |
| --- | --- | --- | --- |
| Cc1ccc(F)c2cc(C(=O)N[C@@H]3CCC[C@H](N4CC5(CNC(=O)C5)C4)C3)[nH]c12 [compound 897] | 100 nM | 10 nM | – |
| Cc1ccc(F)c2cc(C(=O)N[C@@H]3CCC[C@@H](N4CC5(CNC(=O)C5)C4)C3)[nH]c12 [compound 898] | > 2000 nM | 4300 nM | – |
| Cc1ccc(F)c2cc(C(=O)N[C@@H]3CCC[C@@H](c4cccnc4)C3)[nH]c12 [compound 902] | > 2000 nM | 4200 nM | – |
| Cc1ccc(F)c2cc(C(=O)N[C@@H]3CCC[C@H](c4cccnc4)C3)[nH]c12 [compound 903] | 300 nM | 40 nM | – |
| Cc1ccc(F)c2cc(C(=O)N[C@H]3CCC[C@H](c4cccnc4)C3)[nH]c12 [compound 904] | > 2000 nM | 8100 nM | – |
| Cc1ccc(F)c2cc(C(=O)N[C@H]3CCC[C@@H](c4cccnc4)C3)[nH]c12 [compound 905] | > 2000 nM | 2900 nM | – |
| Cc1ccc(F)c2cc(C(=O)N[C@@H]3CCC[C@H](N4CCN(C)CC4=O)C3)[nH]c12 [compound 916] | 1300 nM | 1000 nM | – |
| Cc1ccc(F)c2cc(C(=O)N[C@@H]3CCC[C@@H](N4CCN(C)CC4=O)C3)[nH]c12 [compound 917] | > 2000 nM | > 10000 nM | – |
| Cc1ccc(F)c2cc(C(=O)N[C@@H]3CCC[C@H](N4CCN(C(=O)C5COC5)CC4)C3)[nH]c12 [compound 918] | 100 nM | 20 nM | – |
| Cc1ccc(F)c2cc(C(=O)N[C@@H]3CCC[C@@H](N4CCN(C(=O)C5COC5)CC4)C3)[nH]c12 [compound 919] | > 2000 nM | 900 nM | – |
| Cc1ccc(F)c2cc(C(=O)N[C@@H]3CCC[C@H](N4CCN(C5CCOC5)CC4)C3)[nH]c12 (stereo partly shown) [compound 924] | 600 nM | 100 nM | – |
| Cc1ccc(F)c2cc(C(=O)N[C@@H]3CCC[C@@H](N4CCN(C5CCOC5)CC4)C3)[nH]c12 (stereo partly shown) [compound 925] | > 2000 nM | 8800 nM | – |
| Cc1ccc(F)c2cc(C(=O)N[C@@H]3CCC[C@H](N4CCC5(CC4)CNC(=O)C5)C3)[nH]c12 [compound 928] | 900 nM | 30 nM | – |
| Cc1ccc(F)c2cc(C(=O)N[C@@H]3CCC[C@@H](N4CCC5(CC4)CNC(=O)C5)C3)[nH]c12 [compound 929] | > 2000 nM | 1700 nM | – |
| Cc1ccc(F)c2cc(C(=O)N[C@@H]3CCC[C@H](N4CCC5(CCC(=O)N5)CC4)C3)[nH]c12 [compound 938] | 500 nM | 30 nM | – |
| Cc1ccc(F)c2cc(C(=O)N[C@@H]3CCC[C@@H](N4CCC5(CCC(=O)N5)CC4)C3)[nH]c12 [compound 939] | > 2000 nM | 500 nM | – |

Results, then the compound that gave them:

| IC50 (H3K36me3 in A549 cells; Homo sapiens) | IC50 (SETD2(1434-1711)) | IC50 (H3K36me3 in A549 cells) | Compound |
| --- | --- | --- | --- |
| > 2000 nM | 900 nM | – | Cc1ccc(F)c2cc(C(=O)N[C@@H]3CCC[C@@H](N4CCN5C(=O)OCC5C4)C3)[nH]c12 (stereo partly shown) [compound 866] |
| 40 nM | 10 nM | – | Cc1ccc(F)c2cc(C(=O)N[C@@H]3CCC[C@H](N4CCN(C(=O)CO)CC4)C3)[nH]c12 [compound 870] |
| 1200 nM | 100 nM | – | CC(=O)N(CCO)C1CCN([C@H]2CCC[C@@H](NC(=O)c3cc4c(F)ccc(C)c4[nH]3)C2)C1 (stereo partly shown) [compound 872] |
| > 2000 nM | 1100 nM | – | CC(=O)N(CCO)C1CCN([C@@H]2CCC[C@@H](NC(=O)c3cc4c(F)ccc(C)c4[nH]3)C2)C1 (stereo partly shown) [compound 873] |
| 100 nM | 20 nM | – | COCC(=O)N(C)C1CCN([C@H]2CCC[C@@H](NC(=O)c3cc4c(F)ccc(C)c4[nH]3)C2)C1 (stereo partly shown) [compound 880] |
| > 2000 nM | 7600 nM | – | Cc1ccc(F)c2cc(C(=O)N[C@@H]3CCC[C@@H](N4CCN(C)C(=O)C4C)C3)[nH]c12 (stereo partly shown) [compound 885] |
| 300 nM | 100 nM | – | Cc1ccc(F)c2cc(C(=O)N[C@@H]3CCC[C@H](N4CCCN(C)C(=O)C4)C3)[nH]c12 [compound 887] |
| > 2000 nM | 2500 nM | – | CC(=O)N1CC2(C1)CN([C@@H]1CCC[C@@H](NC(=O)c3cc4c(F)ccc(C)c4[nH]3)C1)C2 [compound 889] |
| 900 nM | 100 nM | – | Cc1ccc(F)c2cc(C(=O)N[C@@H]3CCCC(N4CCNC(=O)CC4)C3)[nH]c12 (stereo partly shown) [compound 893] |
| 10 nM | 10 nM | – | CC(=O)N1CCN([C@H]2CCC[C@@H](NC(=O)c3cc4c(F)ccc(C)c4[nH]3)C2)CC1C (stereo partly shown) [compound 906] |
| 1700 nM | 900 nM | – | CC(=O)N1CCN([C@@H]2CCC[C@@H](NC(=O)c3cc4c(F)ccc(C)c4[nH]3)C2)CC1C (stereo partly shown) [compound 907] |
| 600 nM | 4 nM | – | Cc1ccc(F)c2cc(C(=O)N[C@@H]3CCC[C@H](N4CCC(N(C)C(=O)CN(C)C)C4)C3)[nH]c12 (stereo partly shown) [compound 908] |
| > 2000 nM | 4700 nM | – | Cc1ccc(F)c2cc(C(=O)N[C@@H]3CCC[C@@H](N4CCC(N(C)C(=O)CN(C)C)C4)C3)[nH]c12 (stereo partly shown) [compound 909] |
| 100 nM | 30 nM | – | Cc1ccc(F)c2cc(C(=O)N[C@@H]3CCC[C@H](N4CCC(N5CCCC5=O)C4)C3)[nH]c12 (stereo partly shown) [compound 910] |
| > 2000 nM | 1000 nM | – | Cc1ccc(F)c2cc(C(=O)N[C@@H]3CCC[C@@H](N4CCC(N5CCCC5=O)C4)C3)[nH]c12 (stereo partly shown) [compound 911] |
| – | 20 nM | 100 nM | CC(=O)N1C2CCC1CN(C1CCCC(NC(=O)c3cc4c(F)ccc(C)c4[nH]3)C1)C2 (stereo not shown) [compound 926] |
| – | 1700 nM | > 2000 nM | CC(=O)N1C2CCC1CN(C1CCCC(NC(=O)c3cc4c(F)ccc(C)c4[nH]3)C1)C2 (stereo not shown) [compound 927] |
| 10 nM | 4 nM | – | CC(=O)N1CCN([C@H]2CCC[C@@H](NC(=O)c3cc4c(F)ccc(C)c4[nH]3)C2)C[C@H]1C [compound 930] |
| > 2000 nM | 1100 nM | – | CC(=O)N1CCN([C@@H]2CCC[C@@H](NC(=O)c3cc4c(F)ccc(C)c4[nH]3)C2)C[C@H]1C [compound 931] |
| > 2000 nM | 700 nM | – | Cc1ccc(F)c2cc(C(=O)N[C@@H]3CCC[C@@H](N4CCNC(=O)CC4)C3)[nH]c12 [compound 933] |
| 100 nM | 10 nM | – | Cc1ccc(F)c2cc(C(=O)N[C@@H]3CCC[C@H](N4CCC(N(C)C(=O)CO)C4)C3)[nH]c12 (stereo partly shown) [compound 934] |
| > 2000 nM | 1900 nM | – | Cc1ccc(F)c2cc(C(=O)N[C@@H]3CCC[C@@H](N4CCC(N(C)C(=O)CO)C4)C3)[nH]c12 (stereo partly shown) [compound 935] |
| 500 nM | 100 nM | – | CC(=O)N1CC2CC1CN2[C@H]1CCC[C@@H](NC(=O)c2cc3c(F)ccc(C)c3[nH]2)C1 (stereo partly shown) [compound 936] |
| – | 6800 nM | > 2000 nM | CC(=O)N1CC2CC1CN2C1CCCC(NC(=O)c2cc3c(F)ccc(C)c3[nH]2)C1 (stereo not shown) [compound 937] |
